# Assay results reported in patent US20250387410A1, “TREATMENT OF ANTI-VEGF REFRACTORY OPHTHALMIC RETINAL EYE CONDITIONS” (Eye Co Pty Ltd., priority 2022, published 2025).
# Values joined by “and” are separate entries in the source; they are usually repeats but may differ in a detail not shown here. Identical values can stand only once. “Also recorded” adds a separate entry of the source.
# Tests used:
# [1] = tested on: Ccl2, Il-6, Il-8 expression in MIO-M1 cells; assay: IL-1β stimulation of MIO-M1 cells, cytokine gene expression by QRT-PCR; assay type: cell-based, human; conditions: 1 μg/μl steroid, 1 ng/μl IL-1β, 12 h, versus IL-1β alone
# Description: (§1) The immortalised retinal cells used were as follows: MIO-M1 cells (Muller cell-derived; Müller 1 Moorefields, Institute of Ophthalmology, Dr A. Limb, Institute of Ophthalmology, University College, UK); ARPE19 (RPE-derived; ATCC CRL-2302, American Tissue Culture Collection, VA, USA); and 661W cells (photoreceptor-like derived; kindly gifted by Dr Muayyad R. Al-Ubaidi, Department of Cell Biology, University of Oklahoma Health Sciences Centre, Oklahoma City, OK, USA). Cells were authenticated and validated from Cell Bank Australia.
# (§2) IL-1β and TNF-α were administered to MIO-M1 cells to initiate an inflammatory response in order to test the anti-inflammatory properties of the selected corticosteroids. MIO-M1 cells were grown to a cell density of 50,000 cells per well in a 24 well plate using growth media and foetal bovine serum as described (Section 2.1.1). MIO-M1 cells were challenged with either 1 ng/μl of IL-1β or TNF-α (R&D Systems, MN, USA). Experimental wells were treated with either 1 μg/μl FA, TA or Dexamethasone. […]
# (§3) Following purification of RNA, cDNA was synthesized using the Bioline Tetro kit (Bioline, Australia) as per the manufacturer's instructions. Quantitative Real Time Polymerase Chain Reaction (QRT-PCR) was undertaken to profile gene expression changes in animal and cell culture samples. […] Data was analysed using the QuantStudio 12K Flex Software (Applied Biosystems, USA).
# [2] = tested on: Ccl2, Il-6, Il-8 expression in MIO-M1 cells; assay: TNF-α stimulation of MIO-M1 cells, cytokine gene expression by QRT-PCR; assay type: cell-based, human; conditions: 1 μg/μl steroid, 1 ng/μl TNF-α, 12 h, versus TNF alone
# Description: as §1, §2, §3
# [3] = tested on: subjects with geographic atrophy (GA) secondary to AMD; assay: Phase 1b single-dose dose-escalation intravitreal trial in geographic atrophy; assay type: in vivo, human
# Description: To evaluate the safety and tolerability of a single-dose intravitreal (IVT) injection of 1 mg/0.1 mL and 2 mg/0.1 mL Fludrocortisone acetate (FCA) in subjects with geographic atrophy (GA) secondary to Age-Related Macular Degeneration (AMD).
# Methods: This was a two-part dose-escalation prospective study. Part-1 involved a single participant treated with 1 mg/0.1 ml and monitored up to 28-days before being reviewed by a safety review committee. Two subsequent participants were then dosed with the same dose. Part-2 involved a single participant dosed with 2 mg/0.1 ml and monitored up to 28-days when a further 5 participants were dosed. All participants were followed up for 6-months after baseline.
# A full ophthalmic assessment was performed at study visits which included GA area, best-corrected visual acuity (BCVA), low-luminance BCVA and intra-ocular pressure (IOP). Adverse events (AE) were reported from the first dose of FCA until the end-of-study visit.
# This single-centre, phase 1b prospective, open-labeled, single-dose, dose-escalation clinical trial was conducted on 9 participants enrolled at a single site between August 2019 to April 2021. All patients were followed up for 6 months after baseline. Ethics approval was obtained before commencement and the trial was listed on the Australian and New Zealand Clinical Trial Registry (accessible via www.anzctr.org.au; ANZCTR no. 12618001308280). An independent data and safety committee provided oversight of the clinical trial. This study adhered to the tenets of the Declaration of Helsinki. Informed consent was obtained from all participants before enrolment into the study.
# Fludrocortisone acetate was formulated for intravitreal administration as a powder solution for injection to ensure long-term stability similar to other cortico-steroids (15). Vials contained 10 mg of FCA powder and were reconstituted with sterile sodium chloride solution (0.9%) according to the appropriate dosage prior to injection.
# Inclusion criteria referring the study eye were as follows: diagnosis of GA secondary to AMD confirmed using fundus autofluorescence (FAF) imaging, GA area between ≥1.9 and ≤17 mm2 (1 and 7 disc areas (DA) respectively), best corrected visual acuity (BCVA) of 24 letters or better using Early Treatment Diabetic Retinopathy Study (ETDRS) charts.
# A full ophthalmic assessment was performed at each study visit which included GA area assessed through FAF imaging, BCVA, lower-luminance BCVA (LL-BCVA) and intra-ocular pressure (IOP). Participants were assessed at screening, baseline, day 1, day 7, day 14, day 28, day 60, day 90 and day 150 (end of study). Blood and urine samples were collected for safety analysis at screening, baseline, day 7, day 28 and day 150.
# Part 1 of the study involved a single participant treated with 1 mg/0.1 ml FCA to assess safety and tolerability. This participant was followed-up for 28 days before the results were reviewed by an independent data safety monitoring committee (DSMB). Subsequent to approval by the DSMB, a further 2 participants were treated with 1 mg/0.1 ml FCA and followed-up for a further 28 days after treatment before commencement of part 2.
# Part 2 involved a single dose of 2 mg/0.1 ml of FCA in a single participant and followed-up for 28 days like part 1. The DSMB reviewed the results prior to enrolment of the remaining 5 participants.
# Fundus auto-fluorescence was captured using Heidelberg Spectralis (Heidelberg Engineering, Heidelberg, Germany). The assessment of GA size and progression was performed using FAF was performed by 2 graders (T.H and E.C.) in a blinded manner using Heidelberg region finder software version 2.6.2.0 (FIG. 1), a semi-automated program used to quantify atrophic areas. Baseline FAF images were defined and used to assess subsequent visits using the region finder software. In cases where there was a discrepancy of more than 20% between the two graders, a third grader (A.C.) evaluated the images. […]
# [4] = fellow (uninjected) eye of treated participants, day 150
smiles,measurement,setting,value
"CC(=O)OCC(=O)[C@@]1(O)CC[C@H]2[C@@H]3CCC4=CC(=O)CC[C@]4(C)[C@@]3(F)[C@@H](O)C[C@@]21C [FA, 9-α-Fluoro-11 β. 17 α, 21-trihydroxy-4-pregnene-3, 20 dione acetate]","Ccl2, Il-6, and Il-8 expression after IL-1β stimulation",[1],drastically reduced; also recorded: suppressed to near baseline levels
same,"Ccl2, Il-6, and Il-8 expression after TNF stimulation",[2],significantly reduced; also recorded: drastically reduced; also recorded: significantly inhibited
same,loss of BCVA letters in the initial pilot participant,"[3]; 1 mg/ml, day 14, one participant, deemed most likely unrelated by the DSMB",22 letters
same,adverse event in one participant,"[3]; 2 mg/ml, after day 90, study eye, resolved after 1 week",nasal subconjunctival haemorrhage
same,other adverse events throughout the study,[3]; all 9 participants,No other adverse events
same,systemic adverse event,"[3]; dose escalation study, 9 participants",no systemic adverse event
same,"BCVA mean change from baseline, fellow eye",[3]; [4],4.88 ± 8.37 letters
same,"IOP mean change from baseline, fellow eye",[3]; [4],−0.625 ± 4.24 mmHg
same,"LLVA mean change from baseline, fellow eye",[3]; [4],4.5 ± 11.49 letters
same,"GA area mean change from baseline, fellow eye","[3]; fellow (uninjected) eye of treated participants, over 6 months, listed as FCA",0.62 mm^2 and 0.62 ± 4.49 mm^2
same,clinical safety and tolerability,"[3]; intravitreal, patients with GA secondary to AMD",clinically safe and well-tolerated
same,serious AEs (ocular or systemic),"[3]; single IVT 1 mg/0.1 ml or 2 mg/0.1 ml, 9 participants, 6 months",no serious AEs
same,cataract development / lens opacity,"[3]; single IVT 1 or 2 mg/0.1 ml, 6 months follow-up, no formal lens grading, listed as FCA",no participants required/underwent cataract surgery; also recorded: not observed; also recorded: no evidence
same,increase of IOP,"[3]; single IVT 1 or 2 mg/0.1 ml, study eye, 6 months follow-up, listed as FCA",No significant increases; also recorded: not observed; also recorded: did not increase; also recorded: no evidence
same,"IOP mean change from baseline, study eye","[3]; study eye, day 150 compared to baseline, listed as FCA",−0.25 mmHg and −0.25 ± 4.06 mmHg
same,"GA area mean change from baseline, study eye","[3]; study eye, over 6 months, FAF region finder, listed as FCA",0.5 mm^2 and 0.5 ± 5.69 mm^2
same,"changes in body temperature, heart rate, systolic or diastolic blood pressure",[3]; throughout the study,no significant changes
